Assay results reported in patent US20260272895A1, “METHODS AND KITS FOR DELIVERY OF COMPOUNDS INTO CELLS” (Yale University, priority 2023, published 2026).

Tests used:
NIH3T3 cells = test: Assessment of pharmacological effects in vitro in NIH3T3 cells (tubulin staining, multinucleated cells); format: cell-based
Excerpt: Confocal microscopy of the different treatment groups allowed us to visualize Hoechst dye-labeled nuclei to quantify the proportion of cells with multinucleated phenotype which is known to occur with Colchicine treatments.

brain cell types = test: In vivo two-photon imaging of mouse cortex after topical cortical administration of fluorophores; conditions: for Target: cell type taking up the compound in vivo (Table 1); for cellular labeling in cortex: topical cortical administration, 50 μM, wild type mice; for in vivo endothelial labeling/uptake: two-photon images of mouse cortex, route and concentration not stated
Procedure: Briefly, animals are anaesthetized via intraperitoneal injections of ketamine/xylazine or via inhaled isoflurane. A region of the skull (3×3 mm) is gently removed with a high-speed drill and the underlying dura is removed. A small glass coverslip is placed over the skull to allow long term optical access for in vivo imaging. Labeling with fluorescent dyes is performed either via intravenous injections or topically application to the cortical surface for 20 min prior to glass cover placement. After recovery, in vivo images are acquired using a two-photon microscope (Bruker Technologies) equipped with a multimodal (fixed wavelength 1040 nm and tunable wavelength) InSight X3 two-photon laser (Spectra Physics) and 20× water immersion objective (Zeiss 1.0N.A.). The two-photon laser is appropriately tuned to excite particular fluorescent dyes and proteins as needed. In selected cases, following in vivo imaging, mice will be sacrificed and perfused for follow up immunohistochemistry and high-resolution confocal imaging (Leica SP8) to further confirm colocalization of dyes and cells expressing particular transporters.
One-month-old wild-type mice were anesthetized using a ketamine/xylazine solution at doses of 100 mg/kg and 10 mg/kg, respectively. The fur around the skull area was shaved, and buprenex (0.1 mg per kg) and carprofen (5 mg per kg) were administered subcutaneously. Mice were kept on a heating pad at 37° C., and anesthesia was periodically monitored. The skin was treated with povidone-iodine solution, followed by cleaning with ethanol, and eye ointment was applied. A small skin section was excised to expose the skull. Thinning of the skull was performed in a circular area, followed by delicately lifting of the remaining skull without harm to the underlying brain. Within the circular region, the dura was gently removed using fine forceps, and a 4 mm cover glass was softly pressed onto the brain surface and affixed to the skull. Fluorescent dyes were applied either through intravenous injections or topically to the cortical surface for 20 minutes before placing the glass cover. A customized head bar was attached either by adhesive (for acute imaging) or permanently implanted (using dental cement, for chronic imaging) onto the skull. Mice were imaged under a two-photon microscope (Prairie Technologies) with a mode-locked MaiTai tunable laser (Spectra Physics). Imaging was performed with a 20× water immersion objective (Zeiss, 1.0NA). Images were captured at depths up to 300 μm from the pial surface using excitation wavelengths ranging from 750 to 950 nm as previously described. Mice undergoing chronic imaging received a recovery period on a heating pad post-surgery, and buprenex (0.1 mg per kg) and carprofen (5 mg per kg) were administered for 3 days.
Batches of 10 compounds were applied through the craniotomy to the cortical surface before placing a cover glass window. No additional washings were performed, and the cover glass was placed, allowing up to 3 hours of imaging of the cortical surface with a two-photon microscope. Following imaging, the data were analyzed to identify potential patterns of cell-specific labeling. […] Positive batches underwent three additional rounds of imaging, with each batch being sequentially split, until a single compound displaying cell-type-specific labeling was identified. As these compounds were not initially purified, the labeling may have resulted from fluorescent byproducts of synthesis. Consequently, large-scale synthesis, purification and characterization (FIGS. 29A-29D) of the identified compounds were conducted. The purified compounds were subsequently retested using in vivo imaging to confirm cell type specificity.
It was reasoned that the best strategy to identify fluorophores with specific affinity to certain cell types and transport mechanisms would be by direct screening in the intact in vivo brain microenvironment. […]

Row | Structure (SMILES) | Target (brain cell types) | further results
1 | COc1cc2c(c(OC)c1OC)-c1ccc(OC)c(=O)cc1[C@@H](NC(C)=O)CC2 [Colchicine] |  | alpha tubulin staining (NIH3T3 cells; 30 μM, NIH3T3 cells (FIG. 11A)): equal disruption of the tubulin structure; alpha tubulin staining (NIH3T3 cells; 100 μM, NIH3T3 cells (FIG. 11B)): equal disruption of the tubulin structure; phalloidin staining (NIH3T3 cells; 100 μM, NIH3T3 cells (FIG. 11D)): disruption of the tubulin structure; phalloidin staining (NIH3T3 cells; NIH3T3 cells (FIG. 11C), concentration not given): equal disruption of the tubulin structure; cell morphology / multinucleated cells (NIH3T3 cells; NIH3T3 cells (FIG. 17A)): changes in cell morphology and presence of multinucleated cells; pattern of α-tubulin immunofluorescence (NIH3T3 cells; NIH3T3 cells, 12 hours, varying concentrations (FIG. 17A)): diffuse labeling pattern
2 | O=S(=O)([O-])c1cc(S(=O)(=O)O)ccc1-c1c2ccc(Br)cc2[o+]c2ccc(-n3ccnc3)cc12 [Compound 31, 2-(6-bromo-2-(1H-imidazol-1-yl)xanthylium-9-yl)-5-sulfobenzenesulfonate] | Endothelial | 
3 | O=S(=O)([O-])c1cc(S(=O)(=O)O)ccc1-c1c2ccc(Br)cc2[o+]c2ccc(S(=O)(=O)O)cc12 [Compound 32, 2-(6-bromo-2-sulfoxanthylium-9-yl)-5-sulfobenzenesulfonate] | Endothelial | 
4 | O=S(=O)([O-])c1cc(S(=O)(=O)O)ccc1-c1c2ccc(Br)cc2[o+]c2ccc(-n3cncn3)cc12 [Compound 33, 2-(6-bromo-2-(1H-1,2,4-triazol-1-yl)xanthylium-9-yl)-5-sulfobenzenesulfonate] | Endothelial | 
5 | O=[N+]([O-])c1ccc2c(c1)Oc1c3c4c(cc1=C2c1ccc(S(=O)(=O)O)cc1S(=O)(=O)[O-])CCC[N+]=4CCC3 [Compound 35, 2-(12-nitro-1,2,3,5,6,7-hexahydrochromeno[2,3-f]pyrido[3,2,1-ij]quinolin-4-ium-9-yl)-5-sulfobenzenesulfonate] | Astrocyte | 
6 | CN(C)c1ccc2c(c1)Oc1c3c4c(cc1=C2c1ccc(S(=O)(=O)O)cc1S(=O)(=O)[O-])CCC[N+]=4CCC3 [Compound 36, 2-(12-(dimethylamino)-1,2,3,5,6,7-hexahydrochromeno[2,3-f]pyrido[3,2,1-ij]quinolin-4-ium-9-yl)-5-sulfobenzenesulfonate] | Astrocyte | 
7 | O=C(O)CCc1ccc2c(c1)Oc1c3c4c(cc1=C2c1ccc(S(=O)(=O)O)cc1S(=O)(=O)[O-])CCC[N+]=4CCC3 [Compound 37, 2-(12-(2-carboxyethyl)-1,2,3,5,6,7-hexahydrochromeno[2,3-f]pyrido[3,2,1-ij]quinolin-4-ium-9-yl)-5-sulfobenzenesulfonate] | Astrocyte | 
8 | CN(C)c1ccc2c(-c3ccc(S(=O)(=O)O)cc3S(=O)(=O)[O-])c3cc(Br)ccc3[o+]c2c1 [Compound 38, 2-(2-bromo-6-(dimethylamino)xanthylium-9-yl)-5-sulfobenzenesulfonate] | Astrocyte | 
9 | CCN(CC)c1ccc2c(-c3ccc(S(=O)(=O)O)cc3S(=O)(=O)[O-])c3cc(Br)ccc3[o+]c2c1 [Compound 39, 2-(2-bromo-6-(diethylamino)xanthylium-9-yl)-5-sulfobenzenesulfonate] | Endothelial | 
10 | Cc1ccc2c(-c3ccc(S(=O)(=O)O)cc3S(=O)(=O)[O-])c3cc4c5c(c3[o+]c2c1)CCCN5CCC4 [Compound 40, 2-(12-methyl-2,3,6,7-tetrahydro-1H,5H-chromeno[2,3-f]pyrido[3,2,1-ij]quinolin-14-ium-9-yl)-5-sulfobenzenesulfonate] | Endothelial | 
11 | O=S(=O)([O-])c1cc(S(=O)(=O)O)ccc1-c1c2ccc(B(O)O)cc2[o+]c2c3c4c(cc12)CCCN4CCC3 [Compound 41, 2-(12-borono-2,3,6,7-tetrahydro-1H,5H-chromeno[2,3-f]pyrido[3,2,1-ij]quinolin-14-ium-9-yl)-5-sulfobenzenesulfonate] | Endothelial | 
12 | CN(C)c1ccc2c(-c3ccc(S(=O)(=O)O)cc3S(=O)(=O)[O-])c3ccc(Br)cc3[o+]c2c1 [Compound 42, 2-(3-bromo-6-(dimethylamino)xanthylium-9-yl)-5-sulfobenzenesulfonate] | Endothelial | 
13 | CN(C)c1ccc2c(-c3ccc(S(=O)(=O)O)cc3S(=O)(=O)[O-])c3ccc(N(C)C)cc3[o+]c2c1 [Compound 43, 2-(3,6-bis(dimethylamino)xanthylium-9-yl)-5-sulfobenzenesulfonate] | Endothelial | cellular labeling in cortex (brain cell types): robust endothelial specific uptake
14 | O=S(=O)([O-])c1cc(S(=O)(=O)O)ccc1C1=c2cc3c4c(c2Oc2cc5ccc(Br)cc5cc21)CCC[N+]=4CCC3 [Compound 44, 2-(12-bromo-1,2,3,5,6,7-hexahydrobenzo[6,7]chromeno[2,3-f]pyrido[3,2,1-ij]quinolin-4-ium-9-yl)-5-sulfobenzenesulfonate] | Endothelial | 
15 | O=S(=O)([O-])c1cc(S(=O)(=O)O)ccc1C1=c2cc3c4c(c2Oc2c1cc1ccccc1c2Br)CCC[N+]=4CCC3 [Compound 45, 2-(15-bromo-1,2,3,5,6,7-hexahydrobenzo[6,7]chromeno[2,3-f]pyrido[3,2,1-ij]quinolin-4-ium-9-yl)-5-sulfobenzenesulfonate] | Endothelial | 
16 | CCN(CC)c1ccc2c(-c3ccc(S(=O)(=O)O)cc3S(=O)(=O)[O-])c3ccc(N(CC)CC)cc3[o+]c2c1 [Compound 46, 2-(3,6-bis(diethylamino)xanthylium-9-yl)-5-sulfobenzenesulfonate] | Endothelial | 
17 | CC(=O)N(O)CCCCCNC(=O)CCC(=O)N(O)CCCCCNC(=O)CCC(=O)N(O)CCCCCNS(=O)(=O)c1ccc(-c2c3ccc(N(C)C)cc3[o+]c3cc(N(C)C)ccc23)c(S(=O)(=O)[O-])c1 [Compound 49, 2-(3,6-bis(dimethylamino)xanthylium-9-yl)-5-(N-(3,14,25-trihydroxy-2,10,13,21,24-pentaoxo-3,9,14,20,25-pentaazatriacontan-30-yl)sulfamoyl)benzenesulfonate] |  | in vivo endothelial labeling/uptake (brain cell types): robust endothelial cell body uptake
18 | CN(C)c1ccc2c(-c3ccc(S(=O)(=O)Cl)cc3S(=O)(=O)[O-])c3ccc(N(C)C)cc3[o+]c2c1 [Compound 54, 2-(3,6-bis(dimethylamino)xanthylium-9-yl)-5-(chlorosulfonyl)benzenesulfonate] |  | cellular labeling in cortex (brain cell types): robust endothelial specific uptake
19 | CN(C)c1ccc2c(-c3ccc(S(=O)(=O)NCCNC(=O)OC(C)(C)C)cc3S(=O)(=O)[O-])c3ccc(N(C)C)cc3[o+]c2c1 [Compound 55, 2-(3,6-bis(dimethylamino)xanthylium-9-yl)-5-(N-(2-((tert-butoxycarbonyl)amino)ethyl)sulfamoyl)benzenesulfonate] |  | in vivo endothelial labeling/uptake (brain cell types): robust endothelial cell body uptake
20 | CCN(CC)c1ccc2c(-c3ccc(S(=O)(=O)NCCOCCOCCOCCOCCOCCOCCOCCOCCOCCOCCOCCOCCOCCOCCOCCOCCOCCOCCOCCOCCOCCOC)cc3S(=O)(=O)[O-])c3ccc(N(CC)CC)cc3[o+]c2c1 [Compound 56] |  | in vivo endothelial labeling/uptake (brain cell types): highly specific in vivo endothelial labeling
21 | CCN(CC)c1ccc2c(-c3ccc(S(=O)(=O)NCCOCCOCCOCCOCCOCCOCCOCCOCCOCCOCCOCCOCCOCCOCCOCCOCCOCCOCCOCCOCCOCCOCCOCCOCCOCCOCCOCCOCCOCCOCCOCCOCCOCCOCCOCCOCCOCCOCCOCCOCCOCCOCCOCCOCCOC)cc3S(=O)(=O)[O-])c3ccc(N(CC)CC)cc3[o+]c2c1 [Compound 57] |  | in vivo endothelial labeling/uptake (brain cell types): highly specific in vivo endothelial labeling
